From PubChem BioAssay AID330 (DTP/NCI, 2004)
“And” between values parts separate entries of the source, which are not always exact repeats. Equal entries are not always repeated. Inconclusive results and toxic doses are left out.

Tested on: P388 leukemia ip, CD2F1 mice, survival T/C
Assay: NCI In Vivo Anticancer Drug Screen. Data for tumor model P388 Leukemia (intraperitoneal) in CD2F1 (CDF1) mice
Settings: endpoint: median survival time, higher = longer survival
Procedure, shortened: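 Mice carrying the transplanted tumor received test compound or vehicle. Survival was recorded in each group, and the value is the treated-group measurement divided by that of the vehicle-treated control group.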

[1] = dose: 25.0 mg/kg/injection, schedule: Q01DX009 (ip), vehicle: saline with Tween-80
[2] = dose: 50.0 mg/kg/injection, schedule: Q01DX005 (ip), vehicle: Klucel (hydroxypropylcellulose) (HPC)
[3] = dose: 100.0 mg/kg/injection, schedule: Q01DX005 (ip), vehicle: Klucel (hydroxypropylcellulose) (HPC)
[4] = dose: 200.0 mg/kg/injection, schedule: Q01DX005 (ip), vehicle: Klucel (hydroxypropylcellulose) (HPC)

Structure (SMILES): N#C/C(=C/c1cc(Br)c2c(c1)OCO2)C(N)=O
- T/C (dose: 100.0 mg/kg/injection, schedule: Q04DX002 (ip), vehicle: saline with Tween-80): 100 % of control
- T/C (dose: 200.0 mg/kg/injection, schedule: Q04DX002 (ip), vehicle: saline with Tween-80): 98 % of control
- T/C (dose: 400.0 mg/kg/injection, schedule: Q04DX002 (ip), vehicle: saline with Tween-80): 97 % of control

Structure (SMILES): COc1cc(C=Nc2cccc(Br)c2)ccc1N(CCCl)CCCl
- T/C (dose: 3.3 mg/kg/injection, schedule: Q01DX009 (ip), vehicle: saline with Tween-80): 154 % of control
- T/C (dose: 5.0 mg/kg/injection, schedule: Q01DX009 (ip), vehicle: saline with Tween-80): 200 % of control
- T/C (dose: 5.56 mg/kg/injection, schedule: Q01DX009 (ip), vehicle: saline with Tween-80): 209 % of control
- T/C (dose: 8.33 mg/kg/injection, schedule: Q01DX009 (ip), vehicle: saline with Tween-80): 186 % of control
- T/C (dose: 11.0 mg/kg/injection, schedule: Q04DX003 (ip), vehicle: other): 165 % of control
- T/C (dose: 12.5 mg/kg/injection, schedule: Q01DX009 (ip), vehicle: saline with Tween-80): 204 % of control and 227 % of control
- T/C (dose: 16.5 mg/kg/injection, schedule: Q04DX003 (ip), vehicle: other): 184 % of control
- T/C (dose: 18.7 mg/kg/injection, schedule: Q01DX009 (ip), vehicle: saline with Tween-80): 186 % of control
- T/C [1]: 166 % of control
- T/C (dose: 25.0 mg/kg/injection, schedule: Q04DX003 (ip), vehicle: other): 230 % of control
- T/C (dose: 37.5 mg/kg/injection, schedule: Q04DX003 (ip), vehicle: other): 107 % of control

Structure (SMILES): CN(C)C(=O)C1OC1(C)c1ccccc1 (stereo not given)
- T/C (dose: 100.0 mg/kg/injection, schedule: Q04DX003 (ip), vehicle: Klucel (hydroxypropylcellulose) (HPC)): 103 % of control
- T/C (dose: 200.0 mg/kg/injection, schedule: Q04DX003 (ip), vehicle: Klucel (hydroxypropylcellulose) (HPC)): 108 % of control
- T/C (dose: 400.0 mg/kg/injection, schedule: Q04DX003 (ip), vehicle: Klucel (hydroxypropylcellulose) (HPC)): 117 % of control

Structure (SMILES): COc1ccc(Cc2cc3c(cc2OCC(=O)Nc2nccs2)OCO3)cc1
- T/C [2]: 88 % of control
- T/C [3]: 97 % of control
- T/C [4]: 97 % of control

Structure (SMILES): C=CCC(CCC)(C(=O)Nc1ccc2nc(C)cc(N)c2c1)C(=O)Nc1ccc2nc(C)cc(N)c2c1
- T/C (dose: 50.0 mg/kg/injection, schedule: Q01DX005 (ip), vehicle: saline with Tween-80): 100 % of control
- T/C (dose: 100.0 mg/kg/injection, schedule: Q01DX005 (ip), vehicle: saline with Tween-80): 93 % of control

Structure (SMILES): C/C(=N\O)C(C)(O)C(C)(C)C (stereo not given)
- T/C [1]: 103 % of control
- T/C (dose: 50.0 mg/kg/injection, schedule: Q01DX009 (ip), vehicle: saline with Tween-80): 86 % of control
- T/C (dose: 100.0 mg/kg/injection, schedule: Q01DX009 (ip), vehicle: saline with Tween-80): 93 % of control

Structure (SMILES): O=C1NC(=O)C(=Cc2ccc([N+](=O)[O-])cc2)C(=O)N1
- T/C [2]: 107 % of control
- T/C [3]: 99 % of control
- T/C [4]: 104 % of control

Structure (SMILES): O=[N+]([O-])c1ccc(Sc2ccccn2)nc1Sc1ccccn1
- T/C (dose: 0.79 mg/kg/injection, schedule: Q01DX009 (ip), vehicle: saline with Tween-80): 100 % of control
- T/C (dose: 1.56 mg/kg/injection, schedule: Q01DX009 (ip), vehicle: saline with Tween-80): 104 % of control
- T/C (dose: 3.12 mg/kg/injection, schedule: Q01DX009 (ip), vehicle: saline with Tween-80): 100 % of control
- T/C (dose: 200.0 mg/kg/injection, schedule: Q01DX009 (ip), vehicle: saline with Tween-80): 92 % of control

Structure (SMILES): CC(C)(C)[Si](C)(C)OC(=O)Nc1ccc(N(CCCl)CCCl)cc1
- T/C (dose: 0.05 mg/kg/injection, schedule: Q01DX009 (ip), vehicle: saline with Tween-80): 122 % of control
- T/C (dose: 0.07 mg/kg/injection, schedule: Q01DX009 (ip), vehicle: saline with Tween-80): 105 % of control
- T/C (dose: 0.11 mg/kg/injection, schedule: Q01DX009 (ip), vehicle: saline with Tween-80): 118 % of control
- T/C (dose: 0.16 mg/kg/injection, schedule: Q01DX009 (ip), vehicle: saline with Tween-80): 123 % of control
- T/C (dose: 5.0 mg/kg/injection, schedule: Q04DX003 (ip), vehicle: distilled water + Tween-80): 153 % of control and 165 % of control
- T/C (dose: 10.0 mg/kg/injection, schedule: Q04DX003 (ip), vehicle: distilled water + Tween-80): 158 % of control and 161 % of control and 203 % of control
- T/C (dose: 40.0 mg/kg/injection, schedule: Q04DX003 (ip), vehicle: distilled water + Tween-80): 100 % of control
- T/C (dose: 1.5 micrograms/kg/injection, schedule: Q01DX009 (ip), vehicle: saline): 95 % of control
- T/C (dose: 3.1 micrograms/kg/injection, schedule: Q01DX009 (ip), vehicle: saline): 97 % of control
- T/C (dose: 6.2 micrograms/kg/injection, schedule: Q01DX009 (ip), vehicle: saline): 102 % of control
- T/C (dose: 12.5 micrograms/kg/injection, schedule: Q01DX009 (ip), vehicle: saline): 104 % of control
- T/C (dose: 25.0 micrograms/kg/injection, schedule: Q01DX009 (ip), vehicle: saline): 94 % of control
- T/C (dose: 50.0 micrograms/kg/injection, schedule: Q01DX009 (ip), vehicle: saline): 110 % of control
